Source: PMC12549532, “The complete λ-carrageenan depolymerization cascade from a marine Pseudoalteromonad revealed by structural analysis of the enzymes” (The Journal of Biological Chemistry, 2025)
Changes are numbered by the printed parent chain.

Experiments:
GH2 [1] = target: T1, GH2 (Pseudoalteromonas distincta, UniProt Z9L5V2N5Y9); experiment: X-ray crystal structure, soaked; assay type: binding; design: without predicted signal peptide; pET28a N-terminal His-tag, cut with thrombin for crystals; E. coli Tuner (DE3); conditions: inhibitor in -1 subsite, capping loop closed
T1 sequence (Z9L5V2N5Y9 24-826): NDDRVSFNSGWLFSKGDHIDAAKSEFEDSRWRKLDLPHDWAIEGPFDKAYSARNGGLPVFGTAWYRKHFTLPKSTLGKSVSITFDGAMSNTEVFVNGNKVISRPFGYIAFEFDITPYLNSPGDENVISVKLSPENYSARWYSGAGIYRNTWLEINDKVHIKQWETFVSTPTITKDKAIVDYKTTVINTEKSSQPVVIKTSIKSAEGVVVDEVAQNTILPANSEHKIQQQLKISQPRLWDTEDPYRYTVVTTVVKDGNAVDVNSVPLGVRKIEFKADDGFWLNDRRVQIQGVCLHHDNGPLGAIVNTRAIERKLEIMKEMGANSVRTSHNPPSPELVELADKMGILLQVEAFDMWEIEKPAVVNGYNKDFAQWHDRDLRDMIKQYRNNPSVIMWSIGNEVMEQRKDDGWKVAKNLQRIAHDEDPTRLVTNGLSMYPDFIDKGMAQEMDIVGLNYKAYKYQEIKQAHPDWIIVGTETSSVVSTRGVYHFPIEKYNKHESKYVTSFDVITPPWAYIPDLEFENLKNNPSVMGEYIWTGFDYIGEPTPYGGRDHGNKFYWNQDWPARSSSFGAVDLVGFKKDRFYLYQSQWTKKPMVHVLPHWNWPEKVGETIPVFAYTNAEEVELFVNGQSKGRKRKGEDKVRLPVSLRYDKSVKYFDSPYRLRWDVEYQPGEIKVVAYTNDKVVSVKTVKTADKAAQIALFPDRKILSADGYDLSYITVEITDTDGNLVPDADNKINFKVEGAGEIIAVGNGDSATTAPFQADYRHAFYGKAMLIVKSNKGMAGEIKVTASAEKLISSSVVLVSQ

S1_8B [2] = target: T2, S1_8B (Pseudoalteromonas distincta, UniProt Z9FD83UQX5); experiment: X-ray crystal structure, soaked; assay type: binding; conditions: inactive mutant (printed C84S); 2.1 Å; modelled as fully sulfated Hex4S6
T2 construct: without predicted signal peptide; pET28a N-terminal His-tag, cut with thrombin for crystals; E. coli BL21 (DE3) Star
T2 sequence (Z9FD83UQX5 24-541): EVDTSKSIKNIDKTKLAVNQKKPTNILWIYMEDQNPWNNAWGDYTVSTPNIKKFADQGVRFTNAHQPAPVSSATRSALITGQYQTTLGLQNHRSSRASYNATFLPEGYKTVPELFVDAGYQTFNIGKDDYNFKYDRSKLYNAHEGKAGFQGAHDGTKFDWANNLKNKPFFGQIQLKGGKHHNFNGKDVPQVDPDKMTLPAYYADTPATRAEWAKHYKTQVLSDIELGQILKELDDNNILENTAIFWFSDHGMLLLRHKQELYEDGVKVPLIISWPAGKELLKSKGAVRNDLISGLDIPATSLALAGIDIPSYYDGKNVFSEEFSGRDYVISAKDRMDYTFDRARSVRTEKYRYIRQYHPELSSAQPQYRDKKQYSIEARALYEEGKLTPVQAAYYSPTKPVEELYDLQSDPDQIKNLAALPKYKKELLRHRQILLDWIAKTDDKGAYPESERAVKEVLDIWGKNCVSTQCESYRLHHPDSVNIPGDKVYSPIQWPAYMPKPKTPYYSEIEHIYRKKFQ

S1_8B [3] = target: T3, S1_8B (Pseudoalteromonas distincta, UniProt Z9FD83UQX5, S94C, form not given); experiment: preparative desulfation, product seen in crystal complexes; assay type: biochemical; conditions: 2-O-desulfation of the non-reducing end
T3 construct: without predicted signal peptide; pET28a N-terminal His-tag, cut with thrombin for crystals; E. coli BL21 (DE3) Star
T3 sequence (Z9FD83UQX5 24-541 S94C): T2 sequence (Z9FD83UQX5 24-541) with S71C

GH2 [4] = target: T1, GH2; experiment: chromogenic activity assay (data not shown)
GH110A [5] = target: T4, GH110A (Pseudoalteromonas distincta, UniProt Z9OJ40UL04, D324N, form not given); experiment: X-ray crystal structure, soaked; assay type: binding; conditions: inactive mutant; trisaccharide G6S in -1 subsite modelled, partial occupancy in +1 and +2
T4 construct: without predicted signal peptide; pET28a N-terminal His-tag, cut with thrombin for crystals; E. coli host
T4 sequence (Z9OJ40UL04 24-600 D324N): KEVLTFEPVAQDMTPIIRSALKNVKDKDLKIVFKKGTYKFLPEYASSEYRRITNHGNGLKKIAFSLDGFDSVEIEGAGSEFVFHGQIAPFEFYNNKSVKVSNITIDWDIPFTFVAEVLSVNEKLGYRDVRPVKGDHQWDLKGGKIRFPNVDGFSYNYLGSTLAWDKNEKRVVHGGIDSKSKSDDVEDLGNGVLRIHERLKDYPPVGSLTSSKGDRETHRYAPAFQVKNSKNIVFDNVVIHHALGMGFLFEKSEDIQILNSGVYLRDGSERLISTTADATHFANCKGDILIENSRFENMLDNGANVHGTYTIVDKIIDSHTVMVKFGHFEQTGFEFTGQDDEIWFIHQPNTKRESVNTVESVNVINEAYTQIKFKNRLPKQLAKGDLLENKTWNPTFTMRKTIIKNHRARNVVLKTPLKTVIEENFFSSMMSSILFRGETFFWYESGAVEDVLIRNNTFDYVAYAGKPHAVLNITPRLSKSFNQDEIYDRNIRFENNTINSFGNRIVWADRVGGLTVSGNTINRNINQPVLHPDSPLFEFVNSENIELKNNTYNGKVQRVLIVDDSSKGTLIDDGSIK

GH110A [6] = target: T5, GH110A (Pseudoalteromonas distincta, UniProt Z9OJ40UL04); experiment: X-ray crystal structure, soaked; assay type: binding; conditions: -1 subsite
T5 construct: without predicted signal peptide; pET28a N-terminal His-tag, cut with thrombin for crystals; E. coli host
T5 sequence (Z9OJ40UL04 24-600): T4 sequence (Z9OJ40UL04 24-600 D324N) with N301D

## OC[C@H]1CNC[C@@H](O)[C@H]1O [GIF, galactoisofagomine]
GH2 [1]
  X-ray crystal structure, soaked: The structure of GH2 in complex with the inhibitor galactoisofagomine (GIF)

## O=S(=O)(O)OC[C@H]1O[C@H](O[C@H]2[C@@H](O)[C@@H](CO)O[C@@H](O[C@@H]3[C@H](O)[C@@H](OS(=O)(=O)O)[C@@H](O[C@H]4[C@@H](O)[C@@H](CO)OC(O)[C@@H]4OS(=O)(=O)O)O[C@@H]3COS(=O)(=O)O)[C@@H]2OS(=O)(=O)O)[C@H](OS(=O)(=O)O)[C@@H](O)[C@H]1O (stereo partly drawn) [λ-NC4, λ-neocarratetraose]
S1_8B [2]
  X-ray crystal structure, soaked: We were able to model both tetrasaccharides as fully sulfated λ−NC4 (i.e., Hex4S6)
S1_8B [3]
  preparative desulfation, product seen in crystal complexes: pretreated with S1_8B to convert the non-reducing end residue to G6S

## O=[N+]([O-])c1ccc(O[C@@H]2O[C@H](CO)[C@H](O)[C@H](O)[C@H]2O)cc1 [pNP-β-Gal, pNP-β-D-galactopyranoside]
GH2 [4]
  chromogenic activity assay (data not shown): GH2 was active on pNP-β-D-galactopyranoside (pNP-β-Gal; not shown)

## O=S(=O)(O)OC[C@H]1O[C@H](O[C@H]2[C@@H](O)[C@@H](CO)O[C@@H](O[C@@H]3[C@H](O)[C@@H](OS(=O)(=O)O)[C@@H](O[C@H]4[C@@H](O)[C@@H](CO)OC(O)[C@@H]4OS(=O)(=O)O)O[C@@H]3COS(=O)(=O)O)[C@@H]2OS(=O)(=O)O)[C@H](O)[C@@H](O)[C@H]1O (stereo partly drawn) [λ-NC4 pre-treated with S1_8B]
GH110A [5]
  X-ray crystal structure, soaked: determining its structure in complex with λ−NC4 that was pre-treated with S1_8B

## O=S(=O)(O)OC[C@H]1OC(O)[C@H](O)[C@@H](O)[C@H]1O (stereo partly drawn) [G6S]
GH110A [6]
  X-ray crystal structure, soaked: We determined the structure of GH110A in complex with the monosaccharide G6S
